# Measurements published in patent US20050038113A1, “Valproic acid and derivatives for the combinatorial therapeutic treatment of human cancers and for the treatment of tumor metastasis and minimal residual disease” (G2M Cancer Drugs AG, priority 2001, published 2005).
# Assays:
# [1] = system: DU-145 prostate cancer cells; test: SRB-assay, reduction in total cellular biomass; type: cell-based, human
# Protocol: (§1) The reduction in cellular biomass was measured by SRB-assay. For this assay cells were seeded in 96 well culture dishes at densities between 3000 and 8000 cells per well. […] Cultures were fixed with cold TCA producing a final TCA concentration of 10%. After 1 hour of incubation at 4° C. the cells were washed five times with water and air dried. Fixed cells were stained for 30 minutes with 0,4% (wt/vol) Sulforhodamine B (SRB) dissolved in 1% acetic acid and washed four times with 1% acetic acid to remove unbound dye. After air drying bound dye was solubilized with 10 mM unbuffered Tris base (pH 10,5) for 5 minutes. Optical densities were read on a Titertek Multiskan Plus spectrophotometric plate reader at 550 nm. Six test wells for each dose-response were set in parallel with 12 growth control wells per cell line. A measure of the cell population density at time 0 (To; the time at which the drug was added) was also made from 12 extra reference wells of cells fixed with TCA just prior to drug addition to the test plates. Background OD of complete medium with 5% FBS fixed and stained as described above was also determined in 12 separate wells. From the unprocessed OD data from each microtiter plate the background OD measurements (i.e. OD of complete medium plus stain and OD of cells at T0) were subtracted thus giving the reduction of cellular biomass of the cells.
# (§2) The effect on the reduction in total cellular biomass was measured by SRB-assay (see example 1 for assay and read-out procedure details).
# (§3) Results using MCF-7 estrogen-dependent breast cancer cells are presented in FIG. 18 and using DU-145 prostate cancer cells in FIG. 19. […] The effect on cell growth was measured by SRB-assay as described in example 1.
# [2] = system: MCF-7 estrogen-dependent breast cancer cells; test: SRB-assay, reduction in total cellular biomass; type: cell-based, human
# Protocol: as §1, §2, §3
# [3] = system: wild-type cells (hematopoietic progenitor cells); test: X-ray sensitivity, colonies in methylcellulose; type: cell-based, Murine; conditions: VPA 1 mM, X-ray 2 Gy
# Protocol: Lin- cells were transduced as described for FIG. 11 (see also methods in example 10 for details), and sorted by FACS. 12 hours after sorting, cells were washed with PBS, and then incubated for 8-12 hours in medium with cytokines [data presented in FIG. 12 using IL-3 (20 ng/ml), IL-6 (20 ng/ml), SCF (100 ng/ml), G-CSF (60 ng/ml), GM-CSF (20 ng/ml)] or without cytokines (data not shown). […] Finally, cells were plated in methylcellulose containing medium (StemCell Technologies) in the presence of cytokines (IL3, IL6, SCF, G- and GM-CSF) for 8-10 days. For FIG. 12 uninfected cells (“Control”), or cells expressing GFP alone (“Empty Vector”), or cells expressing GFP and PML-RAR (“PML-RAR”) were used. 8 days after plating in methylcellulose, the total number of colonies was measured.
# [4] = VPA in combination with 100 nM 1α,25 Dihydroxyvitamin D3, 48 hours, vs either alone
structure (smiles),measurement,setting,value
"CCCC(CCC)C(=O)O [VPA, 2-propylpentanoic acid]",reduction of cellular biomass,"[1]; 1 mM VPA in combination with lower concentrations of cis Platinum, 48 hours",synergistic reduction of cellular biomass
same,reduction in cellular biomass,[1]; [4],at least additive reduction in cellular biomass
same,reduction in cellular biomass,"[2]; 0.75 mM VPA in combination with Paclitaxel, 48 hours, compared to either alone",clear additive reduction in cellular biomass
same,effect of the combination treatment,"[2]; VPA in combination with 100 nM 1α,25 Dihydroxyvitamin D3, 48 hours",slight synergistic effect
same,reduction in cellular biomass,[2]; [4],at least additive reduction in cellular biomass
same,X-ray sensitivity,[3],slightly decreased the sensitivity
